Test results from patent US20070142319A1, “Anxiolytic treatment by inhibition of a polysialyltransferase” (The Burnham Institute, priority 2004, published 2007).

Assays:
[1] = test system: cell surface membrane resialylation; settings: compounds that affect intracellular pools of CTP; cited from earlier work
[2] = test system: CA3 mossy fiber synapses; assay: Mossy fiber-CA3 extracellular recordings of fEPSPs in hippocampal slices; parameters: species or system mouse
From the text: Hippocampal slices from five- to six-month-old ST8Sia-II-deficient mice and their wild-type littermates were used for recordings. After halothane anesthesia, decapitation and removal of the brain, the hippocampi were cut with a VT 1000M vibratome (Leica, Nussloch, Germany) in slices 300 μm thick in ice-cold artificial cerebrospinal fluid (ACSF) containing (in mM): 250 sucrose, 25 NaHCO3, 25 glucose, 2.5 KCl, 1.25 NaH2PO4, 2 CaCl2, and 1.5 MgCl2, pH 7.3. […]
The LTP-inducing high-frequency stimulation (HFS) consisted of one train of stimuli applied at 100 Hz during 1 sec once (“weak” stimulation protocol) or repeated four times with an interval of 20 sec (“strong” stimulation protocol). […] To additionally confirm that the fEPSPs recorded were evoked by the stimulation of mossy fibers and not by the associational/commissural pathway, an agonist of type II metabotropic glutamate receptors (L-CCG1, 10 μM; Tocris), which is known to reduce synaptic transmission in CA3 mossy fiber synapses (Manzoni, et al. Neuropharmacology (1995) 34:965-71), was applied at the end of each experiment. […] Basal synaptic transmission was monitored at 0.033 Hz. The mean amplitude of fEPSPs recorded 0-10 min before HFS was taken as 100%. Post-tetanic potentiation (PTP) was calculated as the maximal increase in the amplitude of fEPSP after HFS. […]

[3] = test system: cultured neurons; settings: acts as chain terminator after conversion to unnatural sialic acid derivative; cited from earlier work

| Compound | cell surface membrane resialylation [1] | also measured |
| --- | --- | --- |
| Nc1ccn([C@@H]2O[C@H](CO)[C@@H](O)[C@@H]2O)c(=O)n1 [1-beta-D-arabinofuranosylcytosine] | curtail | – |
| O=C1C=CN([C@@H]2O[C@H](CO)[C@@H](O)[C@H]2O)C(=O)C1 [3-deazauridine] | curtail | – |
| NC(CCCP(=O)(O)O)C(=O)O (stereo not drawn) [AP-5] | – | effect on the amplitude of recorded fEPSPs ([2]; AP-5 50 μM, wild-type or ST8Sia-II deficient samples): did not affect the amplitude |
| N[C@H](C(=O)O)[C@H]1C[C@@H]1C(=O)O [L-CCG1] | – | reduction of the amplitude of fEPSPs ([2]; L-CCG1 10 μM at end of experiment, similarly in both genotypes (wild-type and ST8Sia-II deficient)): 80% |
| CCCC(=O)N[C@@H]1C(O)O[C@H](CO)[C@@H](O)[C@@H]1O (stereo partly drawn) [N-butanoylmannosiamine] | – | PSA expression on cultured neurons [3]: inhibit PSA expression |
| N[C@H](C(=O)O)[C@@H]1CC(Cl)=NO1 [acivicin] | curtail | – |
